Measurements reported in article PMC11726359, “Discovery of Rezatapopt (PC14586), a First-in-Class, Small-Molecule Reactivator of p53 Y220C Mutant in Development” (ACS Medicinal Chemistry Letters, 2024).

Target: T1, recombinant His-tag Y220C p53 DNA binding domain (Homo sapiens, UniProt P04637, Y220C)
T1 construct: Y220C p53 DBD protein (amino acids #94-312); made in house
Experiment: TR-FRET DNA binding assay (SC150)
Assay type: biochemical
Conditions: Figure 1; enhancement of DNA binding
Source text: At the outset of our hit generation campaign, several small molecules targeting the p53 Y220C mutant protein were identified. Two notable examples, supported by crystallographic data, were the compounds from the carbazole series[6] (PhiKan83) and the iodophenol series[7] (PK1596) (Figure 1). To assess the in vitro potency of the p53 Y220C reactivators, a time-resolved fluorescence resonance energy transfer (FRET) assay was developed. In this assay, recombinant His-tag Y220C p53 DNA binding domain binds to biotin-labeled consensus DNA, and the FRET signal is measured between the allophycocyanin-conjugated anti-His-tag antibody and europium-conjugated streptavidin. The […] concentration required to increase DNA binding by 1.5-fold (SC150) could then be determined. The carbazole compound (PhiKan83) enhanced DNA binding with an SC150 of 37.2 μM. […]
Time-Resolved Fluorescence Resonance Energy Transfer (TR-FRET) Assay
DNA binding activity was measured by the TR-FRET assay. In this assay, the recombinant His6-tag Y220C p53 DNA binding domain (DBD) protein binds to biotin labeled consensus DNA. The binding of recombinant His6-tag Y220C p53 DBD protein and biotin-labeled consensus DNA is detected by the fluorescence resonance energy transfer (FRET) between allophycocyanin (APC) conjugated anti-His6 tag antibody and Europium-(Eu) conjugated Streptavidin. Test compounds, at 2 mM stock in DMSO, were diluted t hr e e-f ol d in serial dilutions in DMSO and 1.2 µL per well were added into 384-well polypropylene black plates (NUNC). Subsequently, 30 µL per well of 181 nM recombinant His6-tag Y220C p53 DBD protein (amino acids #94-312) and 9.1 nM of APC conjugated anti-His6 tag antibody (Columbia Biosciences) in ice-cold Assay Buffer 1 (50 mM Tris-HCl, pH 7.4, 75 mM KCl, 0.75 mM DTT and 0.2 mg/mL bovine serum albumin [BSA]) was added. As a background control, 30 µL of Assay Buffer 1 containing 9.1 nM of APC anti-His6 antibody (no Y220C protein) was also added into a second set of serial diluted compound plates. The samples were centrifuged at 1,200 rpm (Eppendorf 5810R plate centrifuge) for 1 minute and incubated at room temperature (20 °C) for 15 min. The samples were then incubated at 27 °C in a water bath for 48 min. Afterwards, 5 µL per well of 145 nM biotin labeled oligonucleotide from a consensus DNA p53 response element (a DNA duplex with 5’ to 3’sequence of […]
and biotin attached to the 3’ end of the complementary DNA) and 8.8 nM Eu-conjugated streptavidin (Columbia Biosciences) in Assay Buffer 2 (50 mM Tris-HCl, pH 7.4, 75 mM KCl and 0.2 mg/mL BSA) were added. The samples were centrifuged at 1,200 rpm for 1 min and incubated at room temperature (20 °C) for 20 min. Assay signals were monitored by reading excitation at 340 nm, and emission fluorescence at 615 and 665 nm, on an Envision reader (Perkin El mer). Normalized TR -FRET assay signal (Rn) was calculated by the formula:
Rn = [(A − B a − C × (D − Bd))/(D − Bd)] × (Dc − B d),
C = (Ac − B a)/(Dc − B d), […]

SC150 [µM] | Structure (SMILES)
37.2 | CCn1c2ccccc2c2cc(CNC)ccc21 [PhiKan83, reference compound]
1.6 | CCN(CC)C1CCN(Cc2cc(C#CCNc3ccccc3)cc(I)c2O)CC1 [PK1596, reference compound]

Same assay, conditions: Table 1; concentration required to increase DNA binding by 1.5-fold

Structure (SMILES) | SC150 [µM]
CCn1c(C#CCNc2ccc(C(C)(C)C)nc2)cc2cc(CNC)ccc21 [Compound 5, 6-(tert-butyl)-3-(3-{1-ethyl-5-[(methylamino)methyl]-2-indolyl}-2-propynylamino)pyridine] | 6.4
CCn1c(C#CCNc2ccccc2)cc2cc(CNC3CCOCC3)ccc21 [Compound 3, N-((1-ethyl-2-(3-(phenylamino)prop-1-yn-1-yl)-1H-indol-5-yl)methyl)tetrahydro-2H-pyran-4-amine] | 26.5
CC(C)(C#N)c1ccc(NCC#Cc2cc3cc(CNC4CCOCC4)ccc3n2CC(F)(F)F)cn1 [Compound 7, 2-methyl-2-(5-((3-(5-(((tetrahydro-2H-pyran-4-yl)amino)methyl)-1-(2,2,2-trifluoroethyl)-1H-indol-2-yl)prop-2-yn-1-yl)amino)pyridin-2-yl)propanenitrile] | 0.48
CCn1c(C#CCNc2ccc(C)nc2)cc2cc(CNC3CCOCC3)ccc21 [Compound 4, N-(3-(1-ethyl-5-(((tetrahydro-2H-pyran-4-yl)amino)methyl)-1H-indol-2-yl)prop-2-yn-1-yl)-6-methylpyridin-3-amine] | 6.3
CCn1c(C#CCNc2ccccc2)cc2cc(C(=O)NC3CCN(C)CC3)ccc21 [Compound 2, 2-(3-anilinoprop-1-ynyl)-1-ethyl-N-(1-methyl-4-piperidyl)indole-5-carboxamide] | >150
CCn1c(C#CCNc2ccc(C(C)(C)C#N)nc2)cc2cc(CNC3CCOCC3)ccc21 [Compound 6, 2-(5-((3-(1-ethyl-5-(((tetrahydro-2H-pyran-4-yl)amino)methyl)-1H-indol-2-yl)prop-2-yn-1-yl)amino)pyridin-2-yl)-2-methylpropanenitrile] | 1.3

The next lines start with the values.

SC150 [µM] | Structure (SMILES)
0.054 | CN1CCC(Nc2cccc3c2cc(C#CCNc2ccc(C(C)(C)C#N)nc2)n3CC(F)(F)F)CC1 [Compound 10, 2-methyl-2-(5-((3-(4-((1-methylpiperidin-4-yl)amino)-1-(2,2,2-trifluoroethyl)-1H-indol-2-yl)prop-2-yn-1-yl)amino)pyridin-2-yl)propanenitrile]
1.300 | CC(C)(C#N)c1ccc(NCC#Cc2cc3c(CNC4CCOCC4)cccc3n2CC(F)(F)F)cn1 [Compound 8, 2-methyl-2-(5-((3-(4-(((tetrahydro-2H-pyran-4-yl)amino)methyl)-1-(2,2,2-trifluoroethyl)-1H-indol-2-yl)prop-2-yn-1-yl)amino)pyridin-2-yl)propanenitrile]
0.027 | CN1CCC(Nc2cccc3c2cc(C#CCNc2ccc(S(C)(=O)=O)cc2)n3CC(F)(F)F)CC1 [Compound 11, N-(1-methylpiperidin-4-yl)-2-(3-((4-(methylsulfonyl)phenyl)amino)prop-1-yn-1-yl)-1-(2,2,2-trifluoroethyl)-1H-indol-4-amine]
0.030 | Cc1cc(S(C)(=O)=O)ccc1NCC#Cc1cc2c(NC3CCN(C)CC3)cccc2n1CC(F)(F)F [Compound 12, 2-[3-(2-methyl-4-methylsulfonyl-anilino)prop-1-ynyl]-N-(1-methyl-4-piperidyl)-1-(2,2,2-trifluoroethyl)indol-4-amine]
0.105 | CC(C)(C#N)c1ccc(NCC#Cc2cc3c(NC4CCOCC4)cccc3n2CC(F)(F)F)cn1 [Compound 9, 2-methyl-2-(5-((3-(4-((tetrahydro-2H-pyran-4-yl)amino)-1-(2,2,2-trifluoroethyl)-1H-indol-2-yl)prop-2-yn-1-yl)amino)pyridin-2-yl)propanenitrile]
0.030 | CN1CCC(Nc2cccc3c2cc(C#CCNc2ccc(S(C)(=O)=O)cc2OC(F)(F)F)n3CC(F)(F)F)CC1 [Compound 14, N-(1-methyl-4-piperidyl)-2-[3-[4-methylsulfonyl-2-(trifluoromethoxy)anilino]prop-1-ynyl]-1-(2,2,2-trifluoroethyl)indol-4-amine]
